Biological target: T1, human mAChR M4 (Homo sapiens, UniProt P08173)
T1 construct: expressed in transfected cells; host or cells: CHO-K1 (ATCC), stably co-expressing chimeric G protein Gqi5
T1 sequence (P08173 1-479): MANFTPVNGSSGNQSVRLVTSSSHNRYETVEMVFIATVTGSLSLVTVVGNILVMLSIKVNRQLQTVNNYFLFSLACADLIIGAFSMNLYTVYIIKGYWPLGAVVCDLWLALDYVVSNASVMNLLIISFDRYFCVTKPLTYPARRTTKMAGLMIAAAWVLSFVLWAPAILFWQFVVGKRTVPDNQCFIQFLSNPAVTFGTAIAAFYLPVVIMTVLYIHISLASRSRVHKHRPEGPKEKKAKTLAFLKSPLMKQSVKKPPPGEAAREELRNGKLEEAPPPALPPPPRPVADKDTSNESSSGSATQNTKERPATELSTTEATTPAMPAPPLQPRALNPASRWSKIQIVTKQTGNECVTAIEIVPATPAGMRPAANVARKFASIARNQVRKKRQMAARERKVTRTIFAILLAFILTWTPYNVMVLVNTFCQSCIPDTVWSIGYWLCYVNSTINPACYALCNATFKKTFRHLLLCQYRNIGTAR
Experiment: mAChR M4 cell-based functional assay (calcium mobilization, EC80 acetylcholine), human M4
Details: Table 9; for IC50: M4/Gqi5/CHO-K1 cells, decrease of EC80 acetylcholine response; for Emin: human M4, % ACh maximum at 30 μM
How it was run: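 CHO-K1 cells stably expressing human M4 with chimeric Gqi5; intracellular calcium rise read on FDSS as fluorescence static ratio at 1 Hz. Compounds in 10-point 1:3 dilution series; IC50 taken as concentration-dependent decrease of the EC80 acetylcholine response, four-parameter logistic fit.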

| SMILES | IC50 | Emin |
| --- | --- | --- |
| Cc1cnn(C)c1-c1ccc(NC[C@H]2C[C@@H]3CN(CC4CCOCC4)C[C@@H]3C2)nn1 [Compound 66, N-[[(3aR,5s,6aS)-2-(tetrahydropyran-4-ylmethyl)-3,3a,4,5,6,6a-hexahydro-1H-cyclopenta[c]pyrrol-5-yl]methyl]-6-(2,4-dimethylpyrazol-3-yl)pyridazin-3-amine] | 3790 nM | 17.2% |
| Cc1cnn(C)c1-c1ccc(NC[C@H]2C[C@@H]3CN(CC4CCCOC4)C[C@@H]3C2)nn1 (stereo partly drawn) [Compound 67, N-[[(3aR,5s,6aS)-2-(tetrahydropyran-3-ylmethyl)-3,3a,4,5,6,6a-hexahydro-1H-cyclopenta[c]pyrrol-5-yl]methyl]-6-(2,4-dimethylpyrazol-3-yl)pyridazin-3-amine] | 5310 nM | 17.2% |
| Cc1cccnc1CN1C[C@H]2C[C@H](CNc3ccc(-c4c(C)cnn4C)nn3)C[C@H]2C1 [Compound 68, N-[[(3aR,5s,6aS)-2-[(3-methyl-2-pyridyl)methyl]-3,3a,4,5,6,6a-hexahydro-1H-cyclopenta[c]pyrrol-5-yl]methyl]-6-(2,4-dimethylpyrazol-3-yl)pyridazin-3-amine] | 618 nM | 6.26% |
| Fc1ccc(Cl)c(-c2ccc(NC[C@H]3C[C@@H]4CN(CC5CC6C=CC5C6)C[C@@H]4C3)nn2)c1 (stereo partly drawn) [Compound 69, N-[[(3aR,5s,6aS)-2-(5-bicyclo[2.2.1]hept-2-enylmethyl)-3,3a,4,5,6,6a-hexahydro-1H-cyclopenta[c]pyrrol-5-yl]methyl]-6-(2-chloro-5-fluoro-phenyl)pyridazin-3-amine] | 35.9 nM | 2.74% |
| CC(C)(C)CCN1C[C@H]2C[C@H](CNc3ccc(-c4cc(F)ccc4Cl)nn3)C[C@H]2C1 [Compound 70, N-[[(3aR,5s,6aS)-2-(3,3-dimethylbutyl)-3,3a,4,5,6,6a-hexahydro-1H-cyclopenta[c]pyrrol-5-yl]methyl]-6-(2-chloro-5-fluoro-phenyl)pyridazin-3-amine] | 19.2 nM | 2.64% |
| Fc1ccc(Cl)c(-c2ccc(NC[C@H]3C[C@@H]4CN(CC5CCOCC5)C[C@@H]4C3)nn2)c1 [Compound 71, N-[[(3aR,5s,6aS)-2-(tetrahydropyran-4-ylmethyl)-3,3a,4,5,6,6a-hexahydro-1H-cyclopenta[c]pyrrol-5-yl]methyl]-6-(2-chloro-5-fluoro-phenyl)pyridazin-3-amine] | 364 nM | 3.81% |
| Cc1nn(C)cc1-c1ccc(NC[C@H]2C[C@@H]3CN(CC4CCCCC4)C[C@@H]3C2)nn1 [Compound 72, N-[[(3aR,5s,6aS)-2-(cyclohexylmethyl)-3,3a,4,5,6,6a-hexahydro-1H-cyclopenta[c]pyrrol-5-yl]methyl]-6-(1,3-dimethylpyrazol-4-yl)pyridazin-3-amine] | 201 nM | 4.02% |
| Cc1cccnc1CN1C[C@H]2C[C@H](CNc3ccc(-c4cn(C)nc4C)nn3)C[C@H]2C1 [Compound 73, N-[[(3aR,5s,6aS)-2-[(3-methyl-2-pyridyl)methyl]-3,3a,4,5,6,6a-hexahydro-1H-cyclopenta[c]pyrrol-5-yl]methyl]-6-(1,3-dimethylpyrazol-4-yl)pyridazin-3-amine] | 2010 nM | 9.23% |
| Cc1cnn(C)c1-c1ccc(NC(=O)C2C[C@@H]3CN(CCC(C)(C)C)C[C@@H]3C2)nn1 (stereo partly drawn) [Compound 74, (3aR,6aS)-2-(3,3-Dimethylbutyl)-N-[6-(2,4-dimethylpyrazol-3-yl)pyridazin-3-yl]-3,3a,4,5,6,6a-hexahydro-1H-cyclopenta[c]pyrrole-5-carboxamide] | 263 nM | 3.37% |
| O=C(Nc1ccc(-c2ccc(F)cc2Cl)nn1)C1C[C@@H]2CN(CC3CC4C=CC3C4)C[C@@H]2C1 (stereo partly drawn) [Compound 75, (3aR,6aS)-2-(5-bicyclo[2.2.1]hept-2-enylmethyl)-N-[6-(2-chloro-4-fluoro-phenyl)pyridazin-3-yl]-3,3a,4,5,6,6a-hexahydro-1H-cyclopenta[c]pyrrole-5-carboxamide] | 2780 nM | 3.25% |
| Cc1cnn(C)c1-c1ccc(NC(=O)C2CC3CN(CC(C)C(C)(C)C)CC3C2)nn1 (stereo not shown) [Compound 76, N-[6-(2,4-dimethylpyrazol-3-yl)pyridazin-3-yl]-2-(2,3,3-trimethylbutyl)-3,3a,4,5,6,6a-hexahydro-1H-cyclopenta[c]pyrrole-5-carboxamide] | 1040 nM | 4.09% |
| Cc1cnn(C)c1-c1ccc(NC(=O)C2CC3CN(CC4CC5C=CC4C5)CC3C2)nn1 (stereo not shown) [Compound 77, 2-(5-bicyclo[2.2.1]hept-2-enylmethyl)-N-[6-(2,4-dimethylpyrazol-3-yl)pyridazin-3-yl]-3,3a,4,5,6,6a-hexahydro-1H-cyclopenta[c]pyrrole-5-carboxamide] | 408 nM | 3.86% |
| Cc1cnn(C)c1-c1ccc(OCC2C[C@@H]3CN(CCC(C)(C)C)C[C@@H]3C2)nn1 (stereo partly drawn) [Compound 78, (3aR,6aS)-2-(3,3-Dimethylbutyl)-5-[[6-(2,4-dimethylpyrazol-3-yl)pyridazin-3-yl]oxymethyl]-3,3a,4,5,6,6a-hexahydro-1H-cyclopenta[c]pyrrole] | 105 nM | 4.35% |
| Cc1cnn(C)c1-c1ccc(OCC2C[C@@H]3CN(CC45CC6CC(CC(C6)C4)C5)C[C@@H]3C2)nn1 (stereo partly drawn) [Compound 79, (3sR,6aS)-2-(1-adamantylmethyl)-5-[[6-(2,4-dimethylpyrazol-3-yl)pyridazin-3-yl]oxymethyl]-3,3a,4,5,6,6a-hexahydro-1H-cyclopenta[c]pyrrole] | 119 nM | 3.76% |
| Cc1cnn(C)c1-c1ccc(OCC2C[C@@H]3CN(CC4CC5C=CC4C5)C[C@@H]3C2)nn1 (stereo partly drawn) [Compound 80, (3aR,6aS)-2-(5-bicyclo[2.2.1]hept-2-enylmethyl)-5-[[6-(2,4-dimethylpyrazol-3-yl)pyridazin-3-yl]oxymethyl]-3,3a,4,5,6,6a-hexahydro-1H-cyclopenta[c]pyrrole] | 73.4 nM | 4.07% |
| CCC(C)CN1C[C@H]2CC(COc3ccc(-c4c(C)cnn4C)nn3)C[C@H]2C1 (stereo partly drawn) [Compound 81, (3aR,6aS)-5-[[6-(2,4-dimethylpyrazol-3-yl)pyridazin-3-yl]oxymethyl]-2-(2-methylbutyl)-3,3a,4,5,6,6a-hexahydro-1H-cyclopenta[c]pyrrole] | 904 nM | 4.54% |
| CCCC(C)CN1C[C@H]2CC(COc3ccc(-c4c(C)cnn4C)nn3)C[C@H]2C1 (stereo partly drawn) [Compound 82, (3aR,6aS)-5-[[6-(2,4-dimethylpyrazol-3-yl)pyridazin-3-yl]oxymethyl]-2-(2-methylpentyl)-3,3a,4,5,6,6a-hexahydro-1H-cyclopenta[c]pyrrole] | 538 nM | 4.50% |
| Cc1cnn(C)c1-c1ccc(OCC2C[C@@H]3CN(CC4CCCCC4)C[C@@H]3C2)nn1 (stereo partly drawn) [Compound 83, (3aR,6aS)-2-(cyclohexylmethyl)-5-[[6-(2,4-dimethylpyrazol-3-yl)pyridazin-3-yl]oxymethyl]-3,3a,4,5,6,6a-hexahydro-1H-cyclopenta[c]pyrrole] | 222 nM | 3.93% |
| Cc1cnn(C)c1-c1ccc(OCC2C[C@@H]3CN(CC4CCOCC4)C[C@@H]3C2)nn1 (stereo partly drawn) [Compound 84, (3aR,6aS)-5-[[6-(2,4-dimethylpyrazol-3-yl)pyridazin-3-yl]oxymethyl]-2-(tetrahydropyran-4-ylmethyl)-3,3a,4,5,6,6a-hexahydro-1H-cyclopenta[c]pyrrole] | 3090 nM | 10.9% |
| Cc1cnn(C)c1-c1ccc(OCC2C[C@@H]3CN(CC4CCCOC4)C[C@@H]3C2)nn1 (stereo partly drawn) [Compound 85, (3aR,6aS)-5-[[6-(2,4-dimethylpyrazol-3-yl)pyridazin-3-yl]oxymethyl]-2-(tetrahydropyran-3-ylmethyl)-3,3a,4,5,6,6a-hexahydro-1H-cyclopenta[c]pyrrole] | 4600 nM | 14.2% |
| Cc1cnn(C)c1-c1ccc(OCC2C[C@@H]3CN(Cc4ccccc4)C[C@@H]3C2)nn1 (stereo partly drawn) [Compound 86, (3aR,6aS)-2-benzyl-5-[[6-(2,4-dimethylpyrazol-3-yl)pyridazin-3-yl]oxymethyl]-3,3a,4,5,6,6a-hexahydro-1H-cyclopenta[c]pyrrole] | 2860 nM | 9.09% |
| Cc1cnn(C)c1-c1ccc(OCC2C[C@@H]3CN(Cc4ccccc4F)C[C@@H]3C2)nn1 (stereo partly drawn) [Compound 87, (3aR,6aS)-5-[[6-(2,4-dimethylpyrazol-3-yl)pyridazin-3-yl]oxymethyl]-2-[(2-fluorophenyl)methyl]-3,3a,4,5,6,6a-hexahydro-1H-cyclopenta[c]pyrrole] | 4010 nM | 7.39% |
| Cc1cnn(C)c1-c1ccc(OCC2C[C@@H]3CN(Cc4ccc(F)cc4)C[C@@H]3C2)nn1 (stereo partly drawn) [Compound 88, (3R,6aS)-5-[[6-(2,4-dimethylpyrazol-3-yl)pyridazin-3-yl]oxymethyl]-2-[(4-fluorophenyl)methyl]-3,3a,4,5,6,6a-hexahydro-1H-cyclopenta[c]pyrrole] | 4190 nM | 9.57% |
